In ChEMBL document CHEMBL1137129, “Synthesis and structure-activity relationships of novel IKK-beta inhibitors. Part 2: Improvement of in vitro activity” (Bioorg Med Chem Lett, 2004):

How the values were obtained:
[1] = target: T1, Inhibitor of nuclear factor kappa-B kinase subunit beta (Homo sapiens, UniProt O14920); assay: Inhibitory activity against recombinant human I-kappa-B-kinase beta
T1 sequence (O14920 whole entry): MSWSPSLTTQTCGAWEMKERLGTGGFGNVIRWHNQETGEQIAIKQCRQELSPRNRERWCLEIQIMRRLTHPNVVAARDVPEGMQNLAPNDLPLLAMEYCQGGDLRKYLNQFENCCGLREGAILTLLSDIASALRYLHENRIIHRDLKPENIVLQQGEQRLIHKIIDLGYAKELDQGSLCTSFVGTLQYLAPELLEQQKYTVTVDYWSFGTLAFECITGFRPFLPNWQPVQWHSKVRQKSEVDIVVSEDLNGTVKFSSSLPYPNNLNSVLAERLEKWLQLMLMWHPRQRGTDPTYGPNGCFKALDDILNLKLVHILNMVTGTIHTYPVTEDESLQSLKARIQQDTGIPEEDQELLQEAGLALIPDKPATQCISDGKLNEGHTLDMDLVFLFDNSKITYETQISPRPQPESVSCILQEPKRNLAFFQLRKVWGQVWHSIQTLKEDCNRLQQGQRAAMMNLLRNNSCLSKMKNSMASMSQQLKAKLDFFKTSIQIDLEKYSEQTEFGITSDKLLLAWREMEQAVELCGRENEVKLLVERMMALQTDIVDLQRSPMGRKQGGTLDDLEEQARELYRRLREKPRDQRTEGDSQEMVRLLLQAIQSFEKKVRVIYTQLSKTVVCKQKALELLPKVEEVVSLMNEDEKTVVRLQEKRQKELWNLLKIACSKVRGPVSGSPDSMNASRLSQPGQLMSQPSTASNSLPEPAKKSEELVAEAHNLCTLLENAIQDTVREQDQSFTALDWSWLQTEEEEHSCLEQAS

A549 = assay: TNF-alpha-induced RANTES production in A549 cells using ELISA assay; type: functional, cell-based; details: Homo sapiens
[2] = Inhibition of Mitogen activated protein kinase kinase 4
[3] = Tested for anti-CD3/anti-CD28-induced IL-2 production in Jurkat T-cell; type: functional, cell-based; details: Homo sapiens
PBMC = assay: Tested for LPS induced TNFalpha production in human PBMC cells; type: functional, cell-based
[4] = target: T2, Inhibitor of nuclear factor kappa-B kinase subunit alpha (Homo sapiens, UniProt O15111); assay: Inhibition of I-kappa-B-kinase alpha
T2 sequence (O15111 whole entry): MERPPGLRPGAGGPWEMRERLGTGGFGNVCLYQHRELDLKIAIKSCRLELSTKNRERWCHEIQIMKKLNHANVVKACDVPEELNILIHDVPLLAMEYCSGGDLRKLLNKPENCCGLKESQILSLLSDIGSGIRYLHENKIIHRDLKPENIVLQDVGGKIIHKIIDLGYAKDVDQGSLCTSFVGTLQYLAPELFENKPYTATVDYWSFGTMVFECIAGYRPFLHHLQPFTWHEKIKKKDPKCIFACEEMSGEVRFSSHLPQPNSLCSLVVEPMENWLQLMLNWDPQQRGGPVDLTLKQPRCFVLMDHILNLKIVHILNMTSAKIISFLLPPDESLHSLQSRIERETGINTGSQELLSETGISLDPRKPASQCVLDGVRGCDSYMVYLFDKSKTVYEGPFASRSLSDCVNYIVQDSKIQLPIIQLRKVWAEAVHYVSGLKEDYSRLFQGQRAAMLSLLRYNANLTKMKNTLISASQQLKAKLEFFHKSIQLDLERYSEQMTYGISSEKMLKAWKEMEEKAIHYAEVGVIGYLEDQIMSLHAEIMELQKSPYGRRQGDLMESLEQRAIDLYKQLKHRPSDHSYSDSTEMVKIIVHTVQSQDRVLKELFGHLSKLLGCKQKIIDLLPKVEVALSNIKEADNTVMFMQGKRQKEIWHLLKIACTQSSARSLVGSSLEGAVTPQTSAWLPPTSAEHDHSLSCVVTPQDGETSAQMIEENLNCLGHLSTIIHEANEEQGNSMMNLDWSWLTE

Compound	IC50 [1] [nM]	IC50 (A549) [nM]	IC50 [2] [nM]	IC50 [3] [nM]	IC50 [4] [nM]	IC50 (PBMC) [nM]
N#Cc1c(C2CCNCC2)cc(-c2ccccc2O)nc1N	300	400	–	–	–	–
N#Cc1c(-c2cccnc2)cc(-c2ccccc2O)nc1N	6200	–	–	–	–	–
N#Cc1c(C(N)CCc2ccccc2)cc(-c2ccccc2O)nc1N (stereo not given)	730	15000	–	–	–	–
CC(=O)Nc1nc(-c2ccccc2O)cc(C2CCCNC2)c1C#N (stereo not given)	330	1500	–	–	–	–
N#Cc1c(C2CCCNC2)cc(-c2ccccc2)nc1N (stereo not given)	> 20000	–	–	–	–	–
CC(C)C(N)c1cc(-c2ccccc2O)nc(N)c1C#N (stereo not given)	240	5000	–	–	–	–
CN1CCCC(c2cc(-c3ccccc3O)nc(N)c2C#N)C1 (stereo not given)	230	1000	–	–	–	–
CC(N)Cc1cc(-c2ccccc2O)nc(N)c1C#N (stereo not given)	470	3000	–	–	–	–
CCCCC(N)c1cc(-c2ccccc2O)nc(N)c1C#N (stereo not given)	480	15000	–	–	–	–
N#Cc1c(C2CCCCN2)cc(-c2ccccc2O)nc1N (stereo not given)	530	6000	–	–	–	–
CNc1nc(-c2ccccc2O)cc(C2CCCNC2)c1C#N (stereo not given)	6500	20	–	–	–	–

Now from value to compound, other results behind:

IC50 [1] [nM]	IC50 (A549) [nM]	IC50 [2] [nM]	IC50 [3] [nM]	IC50 [4] [nM]	Compound	IC50 (PBMC) [nM]
150	4000	–	–	–	CC(N)c1cc(-c2ccccc2O)nc(N)c1C#N (stereo not given)	–
60	8000	–	–	–	N#Cc1c(C(N)Cc2ccccc2)cc(-c2ccccc2O)nc1N (stereo not given)	–
230	2000	–	–	–	N#Cc1c(N)nc(-c2ccccc2O)c(F)c1C1CCCNC1 (stereo not given)	–
110	2000	–	–	–	N#Cc1c(CC(N)c2ccccc2)cc(-c2ccccc2O)nc1N (stereo not given)	–
40	5000	–	–	–	N#Cc1c(C(N)Cc2ccc(F)cc2)cc(-c2ccccc2O)nc1N (stereo not given)	–
70	800	–	–	–	N#Cc1c(CCN)cc(-c2ccccc2O)nc1N	–
25	300	> 20000	600	450	N#Cc1c(C2CCCNC2)cc(-c2ccccc2O)nc1N (stereo not given)	400
80	5000	–	–	–	COc1ccc(CC(N)c2cc(-c3ccccc3O)nc(N)c2C#N)cc1 (stereo not given)	–
